Data reported in article PMC6009892, “A novel series of pyrazole-platinum(II) complexes as potential anti-cancer agents that induce cell cycle arrest and apoptosis in breast cancer cells” (Journal of Enzyme Inhibition and Medicinal Chemistry, 2018).
Read-outs that look alike come from different tables or passages of the source.

Tests used:
Assay type in all cases: cell-based, human
[1] = test system: MCF-7 breast cancer cells; assay: MTT cell viability assay, MCF-7; conditions: 5-50 μM, read-out: IC50 (cell viability, MTT)
Protocol: (§1) MCF-7, MDA-MB-231 (both human breast cancer cell lines), and fibroblast cells were obtained from American Type Culture Collection (ATCC, Manassas, VA, USA). DMEM and FBS used in a cell culture were from Gibco (USA). Glutamine, penicillin, and streptomycin were obtained from Quality Biologicals Inc. (USA). DMEM media was blended with 50 units/ml of penicillin, 50 μg/ml of streptomycin, 10% of FBS. All cell lines were cultured in 5% CO2 and fully humidified at 37 °C. Cells were cultured in Costar flasks and sub-confluent cells were detached with 0.05% trypsin and 0.02% ethylenediaminetetraacetic acid in calcium-free phosphate-buffered saline (PBS), counted in hemocytometers, and plated at 5 × 10^5 cells/well of six-well plates (Thermo Scientific, New York, NY, USA) in 2 ml of growth medium (DMEM without phenol red with 10% CPSR1). Cells reached about 80% of confluency at day 2, and in most cases such cells were used for the assays.
(§2) The viability of cultured cells was decided through assaying the reduction of MTT to formazan. In brief, MCF-7, MDA-MB-231, and fibroblast cells line were seeded at an initial density of 1 × 10^5 cells per well. Then, the cells were incubated at 37 °C for 24 h. Subsequently, cultured cells were treated with a medium containing concentrations (5, 10, 20, 30, 40, and 50 μM) of PtPz1–PtPz6 for 24 h and 48 h. After the incubation period, MTT was added into all wells in the final concentration of 0.5 mg/ml. After that, the cells were incubated at 37 °C for 4 h. Then, by removing the medium, 200 μl of DMSO was added to all wells. As a result, insoluble formazan was dissolved in DMSO (0.5%). At 570 nm (630 nm as a reference), the absorbance was measured in an Evolution 201 reader (Thermo Scientific, Waltham, MA).

[2] = test system: MDA-MB-231 breast cancer cells; assay: MTT cell viability assay, MDA-MB-231; conditions: 5-50 μM, read-out: IC50 (cell viability, MTT)
Protocol: as §1, §2

[3] = test system: fibroblast cells; assay: MTT cell viability assay, fibroblasts; conditions: 5-50 μM, read-out: IC50 (cell viability, MTT)
Protocol: as §1, §2

[4] = test system: MCF-7 breast cancer cells; assay: DNA fragmentation TUNEL assay, MCF-7; conditions: MCF-7, 20 μM, 24 h; control 4.0%
Protocol: (§3) DNA fragmentation associated with apoptosis was examined by the terminal deoxynucleotidyltransferase (TdT)- mediated dUTP nick end labeling (TUNEL) method using a commercial assay kit (APO-Direct Kit; BD Pharmingen, San Diego, CA). After treatment, the cells were fixed with 1% paraformaldehyde in PBS (4°C, 30 min), washed in PBS, and permeabilised with ice-cold 70% ethanol. The APO-Direct Kit TUNEL assay was performed as described by the manufacturer. Briefly, the fixed cells were washed twice using the kit wash buffer, and after centrifugation the supernatant was discarded. The DNA labeling solution (containing TdT enzyme and FITC-dUTP) was added to the cell pellet, and the re-suspended mixture was incubated for 1 h at 37°C with occasional shaking. At the end of incubation time, rinse buffer was added, and after centrifugation the supernatant was discarded. We repeated the cell rinsing with rinse buffer, and then suspended the cell pellet in PI/RNase staining buffer. Cells were incubated at room temperature for 30 min and immediately analysed in a BD FACSCanto II flow cytometer. In total, 10,000 events were collected per test sample. The results were analysed with FACSDiva software (both from BD Biosciences Systems, San Jose, CA). The percentage of cells with distinctive apoptotic DNA strand breaks and distinguished by green fluorescent emission was calculated.

[5] = test system: MDA-MB-231 breast cancer cells; assay: DNA fragmentation TUNEL assay, MDA-MB-231; conditions: MDA-MB-231, 20 μM, 24 h
Protocol: as §3

[6] = test system: caspase-3 in MDA-MB-231 breast cancer cells; assay: FLICA caspase-3 activity, flow cytometry, MDA-MB-231; conditions: MDA-MB-231, 20 μM, 24 h
Protocol: (§4) Caspase-3 activity was measured using the FLICA Caspase 3 Assay Kit (ImmunoChemistry Technologies, Bloomington, MN, USA), according to the manufacturer’s instructions. Briefly, cultured MDA-MB-231 breast cancer cells (1 × 10^6) were washed with cold PBS twice and re-suspended in buffer. We added 5 µl of diluted FLICA reagent and 2 µl of Hoechst 33342 to 93 µl of cell suspension and mixed by pipetting. The cells were incubated for 60 min at 37°C. After incubation, the cells were washed twice in 400 µl of apoptosis wash buffer and centrifuged at 300 × g. After the last wash, we re-suspended the cells in 100 µl of apoptosis wash buffer supplemented with 10 µg/ml PI. Analysis was performed using the BD FACSCanto II flow cytometer, and the results were analysed with FACSDiva software (both from BD Biosciences Systems, San Jose, CA).

[7] = test system: caspase-8 in MCF-7 breast cancer cells; assay: FLICA caspase-8 activity, flow cytometry, MCF-7; conditions: MCF-7, 20 μM, 24 h
Protocol: as §4, with “Caspase-8 activity” for “Caspase-3 activity”, “Caspase 8” for “Caspase 3”, “cultured MCF-7 and” for “cultured”

[8] = test system: caspase-8 in MDA-MB-231 breast cancer cells; assay: FLICA caspase-8 activity, flow cytometry, MDA-MB-231; conditions: MDA-MB-231, 20 μM, 24 h
Protocol: as §4, with “Caspase-8 activity” for “Caspase-3 activity”, “Caspase 8” for “Caspase 3”, “cultured MCF-7 and” for “cultured”

[9] = test system: caspase-9 in MCF-7 breast cancer cells; assay: FLICA caspase-9 activity, flow cytometry, MCF-7; conditions: MCF-7, 20 μM, 24 h
Protocol: as §4, with “Caspase-9 activity” for “Caspase-3 activity”, “Caspase 9” for “Caspase 3”, “cultured MCF-7 and” for “cultured”, “re-suspended” for “re-suspended the”

[10] = test system: caspase-9 in MDA-MB-231 breast cancer cells; assay: FLICA caspase-9 activity, flow cytometry, MDA-MB-231; conditions: MDA-MB-231, 20 μM, 24 h
Protocol: as §4, with “Caspase-9 activity” for “Caspase-3 activity”, “Caspase 9” for “Caspase 3”, “cultured MCF-7 and” for “cultured”, “re-suspended” for “re-suspended the”

[Pt2(pyrazole)4(berenil)2]·4HCl·2H2O [PtPz4]
IC50 ([1]; MCF-7, 24 h incubation): 32 ± 2 µM | IC50 ([1]; MCF-7, 48 h incubation): 29 ± 2 µM | IC50 ([2]; MDA-MB-231, 24 h incubation): 33 ± 3 µM | IC50 ([2]; MDA-MB-231, 48 h incubation): 29 ± 2 µM | IC50 ([3]; 24 h incubation): > 50 µM | IC50 ([3]; 48 h incubation): 46 ± 2 µM | percent of TUNEL positive cells [4]: 29.4% | percent of TUNEL positive cells [5]: 22.9% | percent of cells with active caspase-3 [6]: 14.8% | percent of cells with active caspase-8 [7]: 30.9% | percent of cells with active caspase-8 [8]: 29.5% | percent of cells with active caspase-9 [9]: 29.7% | percent of cells with active caspase-9 [10]: 29.6%
